Measurements from patent US11352352B2, “Aminopyrimidine compound, preparation method therefor and use thereof” (BEIJING ADAMADLE BIOTECHNOLOGY LIMITED LIABILITY COMPANY, priority 2017, dated 2022).
pIC50: −log10 of the molar value.

Experiments:
Experiment in all cases: Cell proliferation inhibition experiment, CellTiter-Glo (CTG) method
Assay type in all cases: cell-based
NCI-H1975 = settings: for pIC50: Homo sapiens, NCI-H1975, 72 h, NCI-H1975 cells, CTG, 3 days; for A-431/NCI-H1975 Selectivity: ratio of A-431 IC50 to NCI-H1975 IC50
Method: (§1) Cell Proliferation Inhibition Experiment
(§2) Compounds were tested in the selected cell lines, and solvent is set as control, nine concentrations were detected with three parallel wells for each concentration.
(§3) 2. Reagents and Materials • 1) fetal bovine serum FBS (GIBCO, Cat #10099-141) • 2) CellTiter-Glo® Luminescent Cell Viability Assay (Promega, Cat #G7572) • 3) 96-well plate with flat clear bottom, black wall plates (Corning®, Cat #3340)
(§4) The first day: Incubation and plant of cells • 1) Cells in logarithmic growth phase were harvested and counted by cell counter. Cell viability was detected by trypan blue exclusion assay to ensure that the viability of each cell line was above 90%. • 2) Cell concentration was adjusted by diluting complete culture medium, and 90 μL cell suspension was added to a 96-well plate (T0 plate and drug plate to be tested) to make the cell density reach the specified concentration. • 3) Cells in 96-well plate were incubated overnight at condition of 37° C., 5% CO2 and 95% humidity.
(§5) The second day: Reading T0 plate • 1) 10 μL culture medium was added to T0 plate. • 2) CTG reagent was melt, while the cell plate was balanced to room temperature for 30 minutes. • 3) The same volume of CTG solution was added to each well. • 4) The cell plate was vibrated for 2 minutes on an orbital shaker to lyze the cells. • 5) The cell plate was placed at room temperature for 10 minutes to stabilize the cold light signal. • 6) The cold light value was read with EnVision.
(§6) Drug Addition • 1) Drug dilution. The compounds to be tested were dissolved and packaged, then a gradient elution was performed to obtain a solution diluted 10 times. • 2) Drug addition. […] drug solution was added into each well of the 96-well plate, which was inoculated cells, three parallel wells were set for each cell concentration.
(§7) The third day: reading plate at the terminal • 1) CTG reagent was melt, while the cell plate was balanced to room temperature for 30 minutes. • 2) The same volume of CTG solution was added to each well. • 3) The cell plate was vibrated for 2 minutes on an orbital shaker to lyze the cells. • 4) The cell plate was placed at room temperature for 10 minutes to stabilize the cold light signal. • 5) The cold light value was read with EnVision
(§8) Data were analyzed using GraphPad Prism 5.0 software, and non-linear S curve regression was used for fitting the data to give a dose-effect curve, IC50 value was calculated accordingly. Cell Survival Rate (%)=(Lumdrugs−Lumcontrol)/(Lumcell−Lumcontrol)×100%.

PC-9 = settings: Homo sapiens, PC-9, 72 h, PC-9 cells, 3 days
Method: as §1, §2, §3, §4, §5, §6, §7, §8

A-431 = settings: Homo sapiens, A-431, 72 h, A-431 cells, 3 days
Method: as §1, §2, §3, §4, §5
Drug Addition • 1) Drug dilution. The compounds to be tested were dissolved and packaged, then a gradient elution was performed to obtain a solution diluted 10 times. • 2) Drug addition. […] drug solution was added into each well of the 96-well plate, which was inoculated cells, three parallel wells were set for each cell concentration. The highest concentration of the compounds to be tested on A-431 was 30 μM, nine concentrations was set with 3 times dilution; while the highest concentration on NCI-H1975 and PC-9 was 1.111 μM, 9 concentrations was set with 3 times dilution. • 3) Culture. Cells in 96-well plates in which drugs have been added were cultured at condition of 37° C., 5% CO2 and 95% humidity for 3 days, and then CTG assay was performed respectively.
as §7, §8

Structure (SMILES) | pIC50 (NCI-H1975) | pIC50 (PC-9) | pIC50 (A-431) | A-431/NCI-H1975 Selectivity (NCI-H1975)
C=CC(=O)Nc1cc(Nc2cc(-c3ccc4c(cnn4C)c3)ncn2)c(OCC)cc1N(C)CCN1CCN(C)CC1 [compound 119] | 7.64 | 7.75 | 5.90 | 54.0
C=CC(=O)Nc1cc(Nc2cc(-c3ccc4c(cnn4C)c3)ncn2)c(OC)cc1N1CCC(N2CCCC2=O)CC1 [compound 212] | 7.14 | 7.26 | 5.69 | 28.3
C=CC(=O)Nc1cc(Nc2cc(-c3ccc4cnn(C)c4c3)ncn2)c(OC)cc1N(C)C1CCCN(C)C1 (stereo not drawn) [compound 73] | 7.19 | 7.30 | 5.99 | 15.7
C=CC(=O)Nc1cc(Nc2cc(-c3ccc4c(cnn4C)c3)ncn2)c(OC)cc1N(C)C1CCC(N2CCN(C)CC2)CC1 (stereo not drawn) [compound 72] | 7.34 | 7.53 | 5.72 | 42.1
C=CC(=O)Nc1cc(Nc2cc(-c3ccc4c(cnn4C)c3)ncn2)c(OC)cc1N1CCN(C)[C@@H](C)C1 [compound 30] | 7.49 | 7.61 | 5.87 | 41.8
C=CC(=O)Nc1cc(Nc2cc(-c3ccc4c(cnn4CC)c3)ncn2)c(OC(F)F)cc1N1C[C@@H](C)N(C)[C@@H](C)C1 [compound 98] | 7.08 | 7.50 | 5.97 | 12.7
C=CC(=O)Nc1cc(Nc2cc(-c3ccc4c(cnn4C)c3)ncn2)c(OC(F)F)cc1N(C)CCN(C)C(C)C [compound 256] | 8.02 | 7.72 | 6.00 | 103.3
C=CC(=O)Nc1c(N(C)CCN(C)C)cc(OC)c(Nc2cc(-c3ccc4c(cnn4C)c3)ncn2)c1F [compound 13] | 8.74 | 8.07 | 6.11 | 
C=CC(=O)Nc1cc(Nc2cc(-c3ccc4c(cnn4C)c3)ncn2)c(CC)cc1N1CCN(C)CC1 [compound 282] | 7.64 | 7.49 | 5.86 | 60.4
C=CC(=O)Nc1cc(Nc2cc(-c3ccc4c(cnn4C)c3)ncn2)c(OCC)cc1N1C[C@@H](C)N[C@@H](C)C1 [compound 265] | 7.69 | 7.46 | 5.79 | 78.9
C=CC(=O)Nc1cc(Nc2cc(-c3ccc4c(cnn4C)c3)ncn2)c(OC(F)F)cc1N(C)CCN(CC)CC [compound 95] | 8.17 | 7.91 | 6.00 | 148.9
C=CC(=O)Nc1cc(Nc2nccc(-c3ccc4c(cnn4C)c3)n2)c(OC)cc1N(C)CCN1CCN(C)CC1 [compound 244] | 7.22 | 7.07 | 5.62 | 40.2
C=CC(=O)Nc1cc(Nc2cc(-c3ccc4c(cnn4C)c3)ncn2)c(OC)cc1N(C)CCN1CCCC1 [compound 36] | 7.50 | 7.66 | 5.99 | 32.3
C=CC(=O)Nc1cc(Nc2cc(-c3ccc4cnn(C)c4c3)ncn2)c(OC)cc1N(C)C1CCN(C)CC1 [compound 54] | 6.95 | 7.05 | 5.88 | 11.8
C=CC(=O)Nc1cc(Nc2nccc(-c3ccc4c(cnn4C)c3)n2)c(OCC)cc1N(C)CCN(C)C [compound 242] | 7.57 | 7.55 | 5.92 | 45.0
C=CC(=O)Nc1cc(Nc2cc(-c3ccc4c(cnn4C)c3)ncn2)c(OC)cc1C1CCN(C)CC1 [compound 11] | 7.17 | 7.66 | 5.67 | 31.7
C=CC(=O)Nc1cc(Nc2nccc(-c3ccc4c(cnn4C)c3)n2)c(OC)cc1N(C)CCN1CCN(C(C)=O)CC1 [compound 254] | 6.88 | 7.51 | 5.64 | 17.2
C=CC(=O)Nc1cc(Nc2cc(-c3ccc4cnn(C)c4c3)ncn2)c(OC(F)F)cc1NCCN(C)C [compound 181] | 7.34 | 7.67 | 5.77 | 36.7
C=CC(=O)Nc1cc(Nc2cc(-c3ccc4c(cnn4C)c3)ncn2)c(OC)cc1N(C)C1CCOCC1 [compound 106] | 7.01 |  | 5.70 | 20.8

The next lines start with results.

pIC50 (NCI-H1975) | pIC50 (PC-9) | pIC50 (A-431) | Structure (SMILES) | A-431/NCI-H1975 Selectivity (NCI-H1975)
7.86 | 7.97 | 6.02 | C=CC(=O)Nc1cc(Nc2cc(-c3ccc4c(cnn4CC)c3)ncn2)c(OC(F)F)cc1N(C)CCN(CC)CC [compound 96] | 69
8.09 | 8.17 | 6.22 | C=CC(=O)Nc1cc(Nc2cc(-c3ccc4c(cnn4C)c3)ncn2)c(OC(F)F)cc1N(C)CCNC(C)(C)C [compound 120] | 73.0
7.48 | 7.65 | 6.10 | C=CC(=O)Nc1cc(Nc2cc(-c3ccc4c(cnn4C)c3)ncn2)c(OC(F)F)cc1N1C[C@@H](C)N(C)[C@@H](C)C1 [compound 97] | 24.1
7.21 | 6.96 | 5.53 | C=CC(=O)Nc1cc(Nc2nccc(-c3ccc4c(cnn4CC)c3)n2)c(OC)cc1N(C)CCN(CC)CC [compound 240] | 48.0
7.87 | 7.98 | 5.74 | C=CC(=O)Nc1cc(Nc2cc(-c3ccc4c(cnn4C)c3)ncn2)c(OC)cc1N(C)C1CCCN(C)C1 (stereo not drawn) [compound 69] | 136.8
7.31 | 7.49 | 5.98 | C=CC(=O)Nc1cc(Nc2cc(-c3ccc4cnn(C)c4c3)ncn2)c(OC)cc1N1CCN(C2CCN(C)CC2)CC1 [compound 184] | 21.3
7.77 | 7.87 | 5.85 | C=CC(=O)Nc1cc(Nc2cc(-c3ccc4cnn(C)c4c3)ncn2)c(OC)cc1N1CCN(C2CCC(OC)C2)CC1 (stereo not drawn) [compound 217] | 82.8
7.87 | 7.89 | 5.91 | C=CC(=O)Nc1cc(Nc2cc(-c3ccc4c(cnn4C)c3)ncn2)c(OC)cc1N1CCN(C2CCC(OC)C2)CC1 (stereo not drawn) [compound 216] | 90.0
7.21 | 7.32 | 5.99 | C=CC(=O)Nc1cc(Nc2cc(-c3ccc4cnn(C)c4c3)ncn2)c(OC)cc1N(C)CCN1CCN(C)CC1 [compound 78] | 16.7
7.21 | 7.49 | 5.60 | C=CC(=O)Nc1cc(Nc2nccc(-c3ccc4c(cnn4C)c3)n2)c(OC)cc1N1CCC(N2CCN(C(C)=O)CC2)CC1 [compound 253] | 40.0
7.49 | 7.89 | 5.68 | C=CC(=O)Nc1cc(Nc2cc(-c3ccc4cnn(C)c4c3)ncn2)c(OC)cc1N1C[C@@H](C)N[C@@H](C)C1 [compound 276] | 65.1
7.28 | 7.34 | 5.80 | C=CC(=O)Nc1cc(Nc2cc(-c3ccc4c(cnn4C)c3)ncn2)c(OC)cc1N1CCN(C)[C@H](C)C1 [compound 31] | 29.9
7.25 | 7.36 | 5.64 | C=CC(=O)Nc1cc(Nc2cc(-c3ccc4c(c3)ncn4C)ncn2)c(OC)cc1N(C)CCN1CCN(C(C)=O)CC1 [compound 130] | 40.9
7.69 | 7.73 | 6.07 | C=CC(=O)Nc1cc(Nc2cc(-c3ccc4c(cnn4C)c3)ncn2)c(OCC)cc1N(C)CCN(CC)CC [compound 93] | 41.7
7.88 |  | 5.85 | C=CC(=O)Nc1cc(Nc2cc(-c3ccc4c(cnn4C)c3)ncn2)c(OC)cc1N(C)C1CCN(C)C1 (stereo not drawn) [compound 57] | 
